# Data: patent publication US9540361B2, “N-substituted azetidine derivatives” (Merck Sharp & Dohme B.V., priority 2010, dated 2017)
# How the values were obtained:
# [1] = target: T1, estrogen receptor alpha (Homo sapiens, UniProt P03372); experiment: ERα downregulation assay in T47D breast cancer cells (ERα ELISA); format: cell-based; details: downregulation of ERα relative to fulvestrant (100%), 1E-5 M, 24 hours, negative = upregulation
# T1 construct: endogenous in cells; host or cells: T47D human breast cancer cells (ATCC)
# T1 sequence (P03372 1-595): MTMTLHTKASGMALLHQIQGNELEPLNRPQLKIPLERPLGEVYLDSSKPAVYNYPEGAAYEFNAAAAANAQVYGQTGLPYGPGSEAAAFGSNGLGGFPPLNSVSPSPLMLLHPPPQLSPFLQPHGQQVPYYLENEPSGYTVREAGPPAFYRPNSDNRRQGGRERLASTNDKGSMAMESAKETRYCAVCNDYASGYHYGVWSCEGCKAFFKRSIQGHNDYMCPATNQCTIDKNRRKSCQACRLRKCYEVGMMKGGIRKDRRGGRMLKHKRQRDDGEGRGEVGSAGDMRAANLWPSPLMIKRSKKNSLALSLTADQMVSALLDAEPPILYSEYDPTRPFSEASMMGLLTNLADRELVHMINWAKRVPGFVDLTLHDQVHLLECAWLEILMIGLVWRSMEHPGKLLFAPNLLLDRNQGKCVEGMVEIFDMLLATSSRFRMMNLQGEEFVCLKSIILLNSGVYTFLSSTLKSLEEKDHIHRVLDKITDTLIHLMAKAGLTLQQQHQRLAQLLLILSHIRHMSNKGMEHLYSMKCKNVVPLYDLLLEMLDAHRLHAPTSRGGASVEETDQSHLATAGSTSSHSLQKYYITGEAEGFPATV
# Outline: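 T47D cells were treated with 1E-5 M test compound for 24 hours, then lysed in the well. ERα protein content was measured by ELISA. Efficacy is given as fraction of maximal response relative to fulvestrant, defined as 100% downregulation.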
# [2] = Rapid Rat PK after oral administration; format: in vivo, rats (Rattus Norvegicus); details: 20 umol/kg, plasma, oral 20 μmol/kg; for AUC: AUC(0-6h), read-out: RRat AUC; for Cmax: read-out: RRat Cmax
# Protocol: In the context of the present invention with “orally bioavailable” is meant that compounds, when dosed orally to a rat show oral exposure as determined by quantification of compound plasma levels in that rat. Typically, compounds are dosed orally at 20 μmol/kg, as described in Example 14 hereinbelow. Oral exposure is determined by measuring plasma levels over the time range of 0-6 h after dosing and is expressed by AUC(0-6h).
# This test was used to determine the pharmacokinetic parameters (AUC(0-6h), Cmax and Tmax) after oral administration of compounds in male (intact or castrated) or female (intact or ovariectomized) rats (Rattus Norvegicus).
# After oral administration of a compound at 20 μmol/kg, blood was collected at various time points (0.5, 1, 2, 3, 4 and 6 hours after compound administration) via the tail vein. Plasma samples were pooled per time point, after which the concentration was determined in plasma by means of LC-MS. Pharmacokinetic parameters (AUC(0-6h), Cmax and Tmax) were derived from the obtained concentration versus time curves using the non-compartmental analysis module in Animals! or WinNonlin.
# [3] = target: T2, human estrogen receptor α (hERα) (Homo sapiens, UniProt P03372); experiment: antagonistic activity in CHO cells co-transfected with hERα, rat oxytocin promoter and luciferase reporter gene; format: cell-based; details: antagonism of 17β-estradiol-induced transactivation, CHO-hERα-RO-LUC; read-out: ERα pIC50 (converted)
# T2 sequence (P03372 1-595): T1 sequence (P03372 1-595)
# Outline: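 Efficacy is the fraction of maximal inhibition of 17β-estradiol-activated receptor, normalised to ICI 164,384 maximal inhibition. Read-out is luciferase in CHO cells stably co-transfected with human ERα and an oxytocin-promoter-driven reporter.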
# [4] = test system: MCF-7H cells; experiment: 7-day in vitro proliferation assay in tamoxifen-resistant MCF-7H breast cancer cells (methyl-3H-thymidine incorporation); format: cell-based, human; details: Homo sapiens, MCF7, 168 h; efficacy (fraction of maximal response relative to E2) in MCF-7H proliferation; read-out: MCF7 ia
# Protocol: To what extent compounds are capable of stimulating proliferation in ER-positive, tamoxifen-resistant breast cancer cells is tested in a 7-day in vitro proliferation assay using MCF-7H cells. More specifically, this in vitro bioassay is used to determine the efficacy (fraction of maximal response), pEC50, and relative potency of the compound to induce proliferation by comparing the data for this compound with those of the reference compound 17β-estradiol (E2) in the same test.
# A more detailed description of the method used is as follows.
# Cell culture: The human epithelial breast cancer cell line MCF-7H (origin: Hubrecht Laboratory, Utrecht, The Netherlands) was routinely maintained in complete medium which is a 1:1 mixture of Ham's F12 medium and Dulbecco's Modified Eagle Medium (DMEM; Invitrogen, Carlsbad, USA) without phenol red and enriched with 5% fetal calf serum (FCS; Hyclone, Utah, USA), 100 μg/ml streptomycin and 100 units/ml penicillin adapted to contain:
# Cells were grown in 80 cm^2 culture flasks (Nunc, Roskilde, Denmark) and kept in an atmosphere of 5% CO2-95% air at 37 degrees Celsius. Cells were subcultured when they reached about 80-90% confluence, resulting in one passage a week. Subculturing includes detaching the cells using trypsin/EDTA and diluting the cell suspension 10 times.
# Methyl-^3H-thymidine incorporation assay: MCF-7H cells were starved overnight in assay medium containing 5% charcoal-treated (CT) bovine calf serum (BCS; Hyclone) instead of FCS and a final concentration of 1.0 μg/ml bovine insulin, the day before plating. Cells were plated in assay medium containing 5% CT BCS, in white 24-wells plates (Perkin Elmer, Shelton, USA), at a density of 7.5×10^3 cells per well, each well containing 630 μL assay medium. Cells were allowed to attach and spread for 24 h before stimulation with reference and/or test compound(s). After a stimulation period of 7 days, 0.25 μCi/well of methyl-^3H-thymidine (GE Healthcare Limited, Buckinghamshire, UK) was added per well. Cultures were maintained in an atmosphere of 5% CO2-95% air at 37 degrees Celsius. After overnight incubation, excess methyl-^3H-thymidine was aspirated and the cells were washed with phosphate-buffered saline (PBS). After 1 h of incubation with 1 ml scintillation fluid Microscint-20 (Perkin Elmer), radioactivity was measured in a Packard TOP-count NXT microplate scintillation counter (Perkin Elmer).
SMILES,DR (%) [1] [%],AUC [2] [µM·h],Cmax [2] [nM],IC50 [3] [nM],Emax [4] [%]
"CCCN1CC(Oc2ccc(C(=C(CC)c3ccccc3)c3cccc(O)c3)cc2)C1 (mixture of isomers) [compound 6w, (E/Z)-3-(2-phenyl-1-(4-(1-propylazetidin-3-yloxy)phenyl)but-1-enyl)phenol]",63,1.07,230,5.01,–
"CCCN1CC(Oc2ccc(C(=O)c3c(-c4ccc(O)cc4)sc4cc(O)ccc34)cc2)C1.O=C(O)C(F)(F)F [compound 6d, (6-hydroxy-2-(4-hydroxyphenyl)benzo[b]thiophen-3-yl)(4-(1-propylazetidin-3-yloxy)phenyl)methanone 2,2,2-trifluoroacetate]",79,–,–,1.58,5
"CCCN1CC(Oc2ccc(-c3c(-c4ccccc4Cl)noc3-c3ccc(O)cc3)cc2)C1 [compound 6g, 4-(4-(4-(N-propylazetidin-3-yloxy)phenyl)-3-(2-chlorophenyl)isoxazol-5-yl)-phenol]",57,2.05,570,0.251,2
"CCCN1CC(Oc2ccc(C(=O)c3c(-c4ccccc4Cl)noc3-c3ccc(O)cc3)cc2)C1.Cl [compound 6m, (3-(2-chlorophenyl)-5-(4-hydroxyphenyl)isoxazol-4-yl)(4-(1-propylazetidin-3-yloxy)phenyl)methanone hydrochloride]",81,–,–,2,7
"CCCN1CC(Oc2ccc([C@@H]3c4ccc(O)cc4CC[C@@H]3c3ccccc3)cc2)C1.Cl [compound 6q, (5R,6S)-6-phenyl-5-(4-(1-propylazetidin-3-yloxy)phenyl)-5,6,7,8-tetrahydronaphthalen-2-ol hydrochloride]",47,–,–,0.251,6
"CCCN1CC(Oc2ccc(C(=C(CC)c3ccccc3)c3ccccc3)cc2)C1.O=C(O)C(F)(F)F [compound 6u, 3-(4-(1,2-diphenylbut-1-enyl)phenoxy)-1-propylazetidine 2,2,2-trifluoroacetate]",75,1.97,450,31.6,8
"Cl.Oc1ccc(-c2onc(-c3ccccc3Cl)c2-c2ccc(OC3CN(CCCF)C3)cc2)cc1 [compound 7aa, 4-(3-(2-chlorophenyl)-4-(4-(1-(3-fluoropropyl)azetidin-3-yloxy)phenyl)isoxazol-5-yl)phenol hydrochloride]",93,3.58,990,1,–
O=C(c1ccc(OC2CN(CCCF)C2)cc1)c1c(-c2ccccc2Cl)noc1-c1ccc(O)cc1 [compound 7ah],94,–,–,2.51,6
"CCCN1CC(Oc2ccc(C(=O)c3c(-c4c(F)cccc4F)noc3-c3ccc(O)cc3)cc2)C1.Cl [compound 7ak, (3-(2,6-difluorophenyl)-5-(4-hydroxyphenyl)isoxazol-4-yl)(4-(1-propylazetidin-3-yloxy)phenyl)methanone hydrochloride]",93,–,–,3.16,7
"CCCN1CC(Oc2ccc(C(O)c3c(-c4ccccc4Cl)noc3-c3ccc(O)cc3)cc2)C1 (stereo not shown) [compound 7av, 4-(3-(2-chlorophenyl)-4-(hydroxy(4-(1-propylazetidin-3-yloxy)phenyl)methyl)isoxazol-5-yl)phenol]",84,3.8,990,25.1,–
"CCCN1CC(Oc2ccc(C(=O)c3c(-c4ccc(O)cc4)noc3-c3ccccc3C)cc2)C1.Cl [compound 7az, (3-(4-hydroxyphenyl)-5-o-tolylisoxazol-4-yl)(4-(1-propylazetidin-3-yloxy)-phenyl)methanone hydrochloride]",88,–,–,6.31,8
"CCCN1CC(Oc2ccc(C(=O)c3c(-c4ccccc4C)nsc3-c3ccc(O)cc3)cc2)C1.Cl [compound 7bb, (5-(4-hydroxyphenyl)-3-o-tolylisothiazol-4-yl)(4-(1-propylazetidin-3-yloxy)-phenyl)methanone hydrochloride]",90,–,–,2,3
"CC(C)CN1CC(Oc2ccc(-c3c(-c4ccccc4Cl)noc3-c3ccc(O)cc3)cc2)C1.Cl [compound 7w, 4-(3-(2-chlorophenyl)-4-(4-(1-isobutylazetidin-3-yloxy)phenyl)isoxazol-5-yl)-phenol hydrochloride]",32,1.55,520,0.316,–
"Cl.Oc1ccc(-c2onc(-c3ccccc3Cl)c2-c2ccc(OC3CN(CC4CC4)C3)cc2)cc1 [compound 7y, 4-(3-(2-chlorophenyl)-4-(4-(1-(cyclopropylmethyl)azetidin-3-yloxy)phenyl)-isoxazol-5-yl)phenol hydrochloride]",57,1.2,290,0.316,–
"Cl.Oc1ccc(-c2onc(-c3ccccc3Cl)c2-c2ccc(OC3CN(CC4CCC4)C3)cc2)cc1 [compound 7z, 4-(3-(2-chlorophenyl)-4-(4-(1-(cyclobutylmethyl)azetidin-3-yloxy)phenyl)-isoxazol-5-yl)phenol hydrochloride]",58,1.03,350,0.398,–
